This is an account of results in patent US10202399B2, “Dihydroxy aromatic heterocyclic compound” (Takeda Pharmaceutical Company Limited, priority 2011, dated 2019).

Molecules are shown by their SMILES.

Test [1] has as its target recombinant human DAAO protein (Homo sapiens (Human), UniProt P14920). The experiment in a line: DAAO inhibitory activity test (H2O2/Amplex red fluorescence). Format: biochemical. The settings on record: D-alanine substrate, Amplex red fluorescence. As to the method: The DAAO inhibitory activity was measured by assaying the amount of hydrogen peroxide (H2O2) produced by reacting DAAO protein with flavin adenine dinucleotide (FAD) and D-alanine. The amount of H2O2 was determined by measuring the fluorescence generated on conversion of Amplex red (manufactured by Invitrogen Co.) into resorufin by the reaction of H2O2 with horseradish peroxidase (HRP).
Escherichia coli strain BL21(DE3) (manufactured by Novagen) was transformed with the constructed human DAAO expression vector, inoculated into LB culture medium containing kanamycin at a final concentration of 20 μg/mL, and shake-cultured at 37° C. overnight. The multiplied transformant was inoculated into Terrific Broth containing kanamycin at a final concentration of 20 μg/mL, and shake-cultured at 37° C. until it reached OD600=3.0. Thereafter, the culture was cooled to 30° C., and expression was induced with 1 mM IPTG. After 20 hours, bacterial pellets were recovered by centrifugation.
The bacterial pellets recovered as above were suspended in a lysis buffer (17 mM sodium pyrophosphate buffer pH 8.3, 100 μM FAD, 1 mM sodium benzoate, 1 mM PMSF, 14 mM β-mercaptoethanol, 0.2 mg/mL lysozyme) and the bacteria were fractured by sonication. The sonicated liquid was centrifuged and the supernatant was recovered. […]

Test [2] deals with HEK293 cells that stably express human DAAO (Homo sapiens (Human), UniProt P14920). The experiment in a line: Inhibitory activity test at cellular level using DAAO-expressing cells. Type of test: cell-based. As to the method:
HEK293 cells that stably express human DAAO were suspended in Cellbanker solution at 5×10^6 cells/ml and cryopreserved at −80° C. At the time of measurement, the cells were centrifuged at 1000 rpm for one min and the Cellbanker solution was removed. […] A 4% DMSO buffer solution (50 mM sodium phosphate [pH 7.5], 0.02% CHAPS) of the test compound (4 μL) was added to a 384-well black, low volume plate, the cell suspension (4 μL) was added, and the mixture was incubated at room temperature for 15 min.
Reverse transcription was performed on human normal kidney tissue-derived RNA (Clontech Corp.) using reverse transcriptase (SuperScriptIII, Life Technologies Corporation) and oligo (dT) primer (Life Technologies Corporation) according to the protocol of the kit (Life Technologies Corporation) and cDNA was synthesized. Then, using human DAAO_HindIII_F represented by Sequence No. 1 and human DAAO_BamHI_R represented by Sequence No. 2, a PCR reaction (35 cycles of 98° C. for 15 sec, 55° C. for 15 sec and 68° C. for 1 min 30 sec) was performed using DNA polymerase (PrimeSTAR, TAKARA BIO INC.) and cDNA obtained as above as a template. […] The PCR product was cloned in a cloning vector (pCR2.1-TOPO Cloning Kit, Life Technologies Corporation). The sequence of the insert was determined by the dideoxy sequence method (BigDye Terminator v3.1 Cycle Sequencing Kit; Life Technologies Corporation). […]

The term IC50 denotes the concentration that inhibits the measured activity by half. As for `O=c1[nH]nc(COc2ccc(Cl)cc2)cc1O` [Example 254], the IC50 in test [1] is 2.7 nM; in test [2], 6.3 nM.
